Like-named read-outs stand apart in the source and are kept apart here.
Experiments:
[1] = test system: HaCaT cells (human keratinocytes); assay: Resazurin cell viability assay, non-malignant keratinocytes; format: cell-based; conditions: resazurin
Procedure: (§1) The cytotoxicity of complexes 2 was evaluated in vitro by determining the half inhibitory concentrations (IC50) against four human cell lines: wild-type BRAF melanoma (MeWo), lung adenocarcinoma (A549), bladder cancer (T24), and non-cancerous skin keratinocytes (HaCaT). The IC50 values were calculated from cell viability values obtained after 72 h of exposure of the drug to cells using the resazurin assay. The viability results, summarized in Table 1 (as μM concentrations) and illustrated in Figure 4, also include the values of the selectivity index (SI). The SI was calculated by dividing the IC50 value in the non-cancerous cells by that in the cancer cells. The higher the SI value, the higher the selectivity of the compound against cancer cells. This parameter also allows for a comparison of the selectivity of the investigated compound with the selectivity of the standard anticancer drug. For comparison, the cytotoxicity of two clinical anticancer drugs, carboplatin and gemcitabine, as well as imidazolium dicarboxylate precursor ligands (HL^R, 1) was evaluated under identical experimental conditions (see viability graphs in Figure 4 and Figure S7). […] Two noteworthy observations can be drawn from Table 1. […] Carboplatin is used for the treatment of ovarian cancer, lung cancer, bladder cancer, and head and neck cancer. Second, these zinc-based complexes were more cytotoxic to cancer cells than to non-malignant HaCaT cells, underscoring their potential therapeutic selectivity.
(§2) HaCaT cells (human keratinocytes) A549 (human lung adenocarcinoma), MeWo (human melanoma), and T24 (human urinary bladder carcinoma) were purchased from Cell Lines Service (CLS). The cells were maintained in Dulbecco’s Modified Eagle Medium (DMEM) supplemented with 10% fetal bovine serum and 1% penicillin/streptomycin. All cell lines were cultured at 37 °C and 5% CO2 with saturating humidity.
(§3) The resazurin assay is a commonly used colorimetric/fluorescent method to assess cell viability. This approach is based on the ability of living cells to convert the blue dye resazurin into the pink soluble resorufin product. The number of viable cells is directly correlated with the amount of resorufin generated. Between 3000 and 6000 cells per well were seeded in 96-well plates and allowed to grow for 24 h. […] The compounds were dissolved in sterile water to prepare a stock solution. Working solutions were obtained by serial dilution in the culture medium and were used immediately to treat the cells. Following this treatment period, the cells were rinsed once with phosphate buffered saline (PBS), and 150 μL of resazurin solution (20 µg/mL in medium) was added to each well. The plates were then incubated for 4–5 h at 37 °C with 5% CO2. Finally, absorbance was measured at 540 and 620 nm using a multiwell plate spectrophotometer (Imark Bio Rad Laboratories Inc., Hercules, CA, USA). The results were reported as percentages of cell viability compared to untreated controls. All data represent the mean ± standard error of the mean (SEM) of at least three independent experiments. The selectivity index (SI) values for each cancer cell line were determined by calculating the ratio of the IC50 value in the non-malignant HaCaT cell line to the IC50 value in the corresponding cancer cell line, based on data from each independent experiment.

[2] = test system: A549 (human lung adenocarcinoma); assay: Resazurin cell viability assay, lung adenocarcinoma; format: cell-based; conditions: for IC50: resazurin
Procedure: as §1, §2, §3

MeWo (human melanoma) = assay: Resazurin cell viability assay, melanoma; format: cell-based; conditions: for IC50: resazurin; for Selectivity Index MeWo: IC50 HaCaT / IC50 MeWo
Procedure: as §1, with “The IC50 values were calculated from cell viability values obtained after 72 h of exposure of the drug to cells using the resazurin assay.” left out
as §2, §3

[3] = test system: T24 (human urinary bladder carcinoma); assay: Resazurin cell viability assay, bladder cancer; format: cell-based; conditions: for IC50: resazurin
Procedure: as §1, with “The IC50 values were calculated from cell viability values obtained after 72 h of exposure of the drug to cells using the resazurin assay.” left out
as §2, §3

[4] = Resazurin cell viability assay, non-malignant keratinocytes; format: cell-based, human; conditions: human, HaCaT keratinocytes (non-malignant); HaCaT, highest concentrations tested, 72 h (Figure 4); read-out: viability of non-malignant cells
Procedure: as §1, §2, §3

[5] = Homo sapiens, HaCaT, 96 h, mean ± SEM (Table S3), read-out: IC50 HaCaT (Non-malignant keratinocyte)
[6] = Homo sapiens, A549, 96 h, mean ± SEM (Table S3)
[7] = IC50 HaCaT / IC50 A549, 96 h, mean ± SEM (Table S3)
[8] = Homo sapiens, MeWo, 96 h, mean ± SEM (Table S3)
[9] = Homo sapiens, 96 h, mean ± SEM (Table S3)
[10] = IC50 HaCaT / IC50 T24, 96 h, mean ± SEM (Table S3)
[11] = 96 h, mean ± SEM (Table S3), read-out: IC50 HaCaT (Non-malignant keratinocyte)
[12] = IC50 HaCaT / IC50 A549, 72 h, mean ± SEM
[13] = IC50 HaCaT / IC50 T24, 72 h, mean ± SEM

Structure (SMILES) | IC50 [2, 6] [nM] | IC50 (MeWo (human melanoma); [8]) [nM] | IC50 [3, 9] [nM] | IC50 [1, 5] [nM] | Selectivity Index A549 [2, 7] | Selectivity Index MeWo (MeWo (human melanoma); 96 h, mean ± SEM (Table S3)) | Selectivity Index T24 [3, 10] | further results
O=c1[nH]cc(F)c(=O)[nH]1 [5-Fluorouracil] | 1900 ± 700 | 1300 | 6300 ± 600 | 400 | 0.3 ± 0.1 | 0.3 ± 0.0 | 0.1 ± 0.0 | 
N.N.O=C([O-])C1(C(=O)[O-])CCC1.[Pt+2] [Carboplatin] |  |  |  |  | 0.6 ± 0.2 | 0.6 ± 0.2 |  | IC50 ([1]; 72 h, mean ± SEM, monomer molecular weight used, read-out: IC50 HaCaT (Non-Malignant Keratinocyte)): 35900 ± 3800 nM; IC50 [1, 11]: 11400 ± 1000 nM; IC50 ([2]; 72 h, mean ± SEM): 42900 ± 1400 nM; IC50 ([2]; 96 h, mean ± SEM (Table S3)): 21100 ± 4000 nM; Selectivity Index A549 [2, 12]: 0.8 ± 0.1; IC50 (MeWo (human melanoma); 72 h, mean ± SEM): 100000 ± 17400 nM; IC50 (MeWo (human melanoma); 96 h, mean ± SEM (Table S3)): 23000 ± 5500 nM; Selectivity Index MeWo (MeWo (human melanoma); 72 h, mean ± SEM): 0.4 ± 0.0; IC50 ([3]; 72 h, mean ± SEM): 22100 ± 2600 nM; IC50 ([3]; 96 h, mean ± SEM (Table S3)): 7300 ± 1100 nM; Selectivity Index T24 [3, 13]: 1.7 ± 0.2
N.N.[Cl][Pt][Cl] [Cisplatin] |  |  |  |  | 0.6 ± 0.1 | 1.0 ± 0.0 | 1.3 ± 0.0 | IC50 [1, 11]: 2200 ± 500 nM; IC50 ([2]; 96 h, mean ± SEM (Table S3)): 3800 ± 100 nM; IC50 (MeWo (human melanoma); 96 h, mean ± SEM (Table S3)): 2200 ± 600 nM; IC50 ([3]; 96 h, mean ± SEM (Table S3)): 1600 ± 400 nM
Nc1ccn([C@@H]2O[C@H](CO)[C@@H](O)C2(F)F)c(=O)n1 [Gemcitabine] | 1.9 ± 1.5 | 1.9 ± 1.5 | 1.7 ± 1.5 | 10.6 ± 4.3 | 5.1 ± 0.3 | 5.1 ± 0.2 | 6.5 ± 1.4 | viability at 72 h [4]: 13%; IC50 ([1]; Homo sapiens, HaCaT, 72 h, mean ± SEM, read-out: IC50 HaCaT (Non-Malignant Keratinocyte)): 22.1 ± 3.1 nM; IC50 ([2]; Homo sapiens, A549, 72 h, mean ± SEM): 5.6 ± 0.1 nM; Selectivity Index A549 [2, 12]: 4.0 ± 0.5; IC50 (MeWo (human melanoma); Homo sapiens, MeWo, 72 h, mean ± SEM): 7.3 ± 0.7 nM; Selectivity Index MeWo (MeWo (human melanoma); 72 h, mean ± SEM): 3.3 ± 0.8; cell viability of melanoma cells (MeWo (human melanoma); MeWo, highest concentrations tested, 72 h (Figure 4)): ≥ 35%; IC50 ([3]; Homo sapiens, 72 h, mean ± SEM): 2.3 ± 0.3 nM; Selectivity Index T24 [3, 13]: 9.3 ± 0.4

Further lines, with some results ahead:

IC50 [2, 6] [nM] | IC50 (MeWo (human melanoma); [8]) [nM] | IC50 [3, 9] [nM] | Structure (SMILES) | IC50 [1, 5] [nM] | Selectivity Index A549 [2, 7] | Selectivity Index MeWo (MeWo (human melanoma); 96 h, mean ± SEM (Table S3)) | Selectivity Index T24 [3, 10] | further results
38.4 ± 6.6 | 15.3 ± 3.6 | 29.8 ± 2 | COc1cccc2c1C(=O)c1c(O)c3c(c(O)c1C2=O)C[C@@](O)(C(=O)CO)C[C@@H]3O[C@H]1C[C@H](N)[C@H](O)[C@H](C)O1 [Doxorubicin] | 8.1 | 0.2 ± 0.0 | 0.6 ± 0.1 | 0.3 ± 0.0 | 
3.5 ± 0.9 | 0.7 | 1.4 ± 0.3 | CC(=O)O[C@H]1C(=O)[C@@]2(C)[C@H]([C@H](OC(=O)c3ccccc3)[C@]3(O)C[C@H](OC(=O)[C@H](O)[C@@H](NC(=O)c4ccccc4)c4ccccc4)C(C)=C1C3(C)C)[C@]1(OC(C)=O)CO[C@@H]1C[C@@H]2O [Paclitaxel] | 0.3 | 0.1 ± 0.0 | 0.5 ± 0.0 | 0.3 ± 0.1 | 
1500 ± 700 | 900 ± 400 | 1900 ± 1100 | CCN(CC)CCNC(=O)c1c(C)[nH]c(/C=C2\C(=O)Nc3ccc(F)cc32)c1C [Sunitinib] | 1000 ± 100 | 1.2 ± 0.6 | 1.5 ± 0.5 | 1.5 ± 0.8 | 
